# Laboratory results: paper doi:10.1101/2022.07.07.499167v1, “The thermodynamic state of aerobic glycolytic flux plays a critical role in stabilizing aerobic glycolytic flux of cancer cells” (biorxiv, 2022)
# Target: T1, pure recombinant PKM2 (Homo sapiens, UniProt P14618)
# T1 construct: gene PKM; PKM2 cDNA in pQE-30, 6xHis tag (removal not mentioned), expressed in E. coli M15 (pREP4), Ni-NTA purified
# Assay: LDH-coupled pyruvate kinase assay, NADH absorbance […] nm
# Format: biochemical
# Conditions: 0.2 mM PEP, 2 mM ADP, 5 mM MgCl2, 100 mM KCl, pH 7.4, 37 °C; no inhibitor mixture; allosteric activator
# T1 sequence (P14618 2-531): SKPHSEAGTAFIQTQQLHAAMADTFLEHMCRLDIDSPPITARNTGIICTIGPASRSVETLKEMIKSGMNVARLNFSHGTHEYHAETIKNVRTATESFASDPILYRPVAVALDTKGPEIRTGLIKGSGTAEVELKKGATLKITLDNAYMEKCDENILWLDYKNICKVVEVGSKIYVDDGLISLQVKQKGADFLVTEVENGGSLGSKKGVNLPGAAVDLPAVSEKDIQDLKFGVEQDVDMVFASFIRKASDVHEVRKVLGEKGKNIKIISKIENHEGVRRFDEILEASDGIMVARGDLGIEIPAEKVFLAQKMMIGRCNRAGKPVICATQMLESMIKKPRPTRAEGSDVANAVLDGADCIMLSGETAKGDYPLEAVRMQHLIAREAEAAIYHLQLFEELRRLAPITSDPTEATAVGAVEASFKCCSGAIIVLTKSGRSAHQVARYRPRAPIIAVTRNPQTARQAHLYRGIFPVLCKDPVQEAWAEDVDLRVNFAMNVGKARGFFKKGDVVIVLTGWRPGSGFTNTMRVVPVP
row,SMILES,AC50
1,O=P(O)(O)OC[C@H]1OC(O)(COP(=O)(O)O)[C@@H](O)[C@@H]1O (stereo partly drawn) [FBP],0.0434 ± 0.0217 µM
2,N[C@@H](CO)C(=O)O [Serine],339 ± 123 µM

# Target: T1, pure recombinant PKM2
# Assay: as above
# Format: biochemical
# Conditions: 0.2 mM PEP, 2 mM ADP, 5 mM MgCl2, 100 mM KCl, pH 7.4, 37 °C; no FBP; allosteric inhibitor
row,SMILES,IC50
1,N[C@@H](Cc1ccccc1)C(=O)O [Phenylalanine],40.9 ± 13.4 µM
2,C[C@H](N)C(=O)O [Alanine],227 ± 174 µM
3,N[C@@H](Cc1c[nH]c2ccccc12)C(=O)O [Tryptophan],254 ± 104 µM
4,CC(C)[C@H](N)C(=O)O [Valine],373 ± 175 µM
